# Laboratory results published in patent US20010039026A1, “Assay method” (priority 2000, published 2001).
# Read-outs that look alike come from different tables or passages of the source.
# Key:
# [1] = tested on: CXCR4 dependent primary and lab-adapted HIV viruses; conditions: cited from earlier work
# CCR5-tropic strains = conditions: cited from earlier work
# [2] = tested on: env-mediated cell-cell fusion; conditions: cited from earlier work
# [3] = tested on: primary, nonsyncytium-inducing (NSI) HIV-1 strains; conditions: primary NSI HIV-1 strains; cited from earlier work
# CCCKR5 = target: T1, CCCKR5 (Homo sapiens, UniProt P51681); conditions: transfected CHO-K1 cells; cited from earlier work
# T1 construct: expressed in transfected cells; host or cells: CHO-K1 (stably transfected)
# primary HIV isolates = conditions: cited from earlier work
# CCR5 [4] = target: T2, CCR5 (Homo sapiens, UniProt P51681); conditions: described by others in model systems; read-out: dissociation constant (Kd) of the interaction of CCR5 with gp120; cited from earlier work
# T2 construct: antagonist of CCR5 function in monocytes; endogenous in cells; host or cells: monocytes
# CCR5 [5] = target: T2, CCR5; experiment: Dissociation constant of the CCR5/gp120 interaction, applicant's work with recombinant proteins; assay type: binding
molecule,measurement,setting,value
c1cc(CN2CCCNCCNCCCNCC2)ccc1CN1CCCNCCNCCCNCC1 [AMD3100],inhibition of infection of susceptible cultures,[1],inhibit infection
Cc1ccc(-c2ccc3c(c2)C=C(C(=O)Nc2ccc(C[N+](C)(C)C4CCOCC4)cc2)CCC3)cc1.[Cl-] [TAK 779],block of entry of CCR5-tropic strains,CCR5-tropic strains,blocks entry
"MIP-1-α: macrophage inflammatory protein, β-chemokine ligand of CCR5",block of env-mediated cell-cell fusion,[2],block env-mediated cell-cell fusion
same,inhibition of infection of CD4(+) cells at the virus entry stage,[3],inhibit infection
same,agonist activity at CCCKR5,CCCKR5,most potent agonist
same,suppression of replication of primary HIV isolates,primary HIV isolates,suppress replication
RANTES: protein which is regulated upon activation and is normal T-cell expressed and secreted,block of env-mediated cell-cell fusion,[2],block env-mediated cell-cell fusion
same,inhibition of infection of CD4(+) cells at the virus entry stage,[3],inhibit infection
same,agonist activity at CCCKR5,CCCKR5,active at physiologic concentrations
same,suppression of replication of primary HIV isolates,primary HIV isolates,suppress replication
SDF-1: chemokine shown to suppress replication of primary HIV isolates,suppression of replication of primary HIV isolates,primary HIV isolates,suppress replication
gp120: envelope protein of HIV that is required for viral entry into the target cells,Kd,CCR5 [4],~1 nM
same,Kd,CCR5 [5],100 to 1000 nM
